# Data from patent US20240209043A1, “NON-ANTIBODY BINDING PEPTIDES AND THEIR ANALOGS DUAL-TARGETING TO PD-1 AND PD-L1, AND USES THEREOF” (ORAL SUBSIDIARY SUN YAT-SEN UNIVERSITY HOSPITAL, priority 2021, published 2024).
# Where no end group is shown, it is not given here.
# Columns and labels:
# [1] = biological target: T1, PD-1 on the surface of Jurkat T cells (Homo sapiens, UniProt Q15116); experiment: Immunofluorescence and flow cytometry analysis of specific binding of FITC-stained peptides to Jurkat T cells; assay type: cell-based; conditions: flow cytometry; 10 μM or 40 μM FITC peptide
# T1 construct: when Jurkat cells were stimulated by PMA, they highly expressed PD-1; endogenous in cells; host or cells: Jurkat T cells stimulated with PMA and ionomycin
# Experimental: (§1) Experiments were divided into an experimental group and a control group. In the experimental group, Jurkat T cells were stimulated for 24 hours with 50 ng/ml of Phorbol 12-myristate 13-acetate (PMA) and 1 ug/ml of Ionomycin Calcium Salt (Ionomycin) to express PD-1, while in the control group, Jurkat T cells were not stimulated and thus hardly expressed any PD-1. For immunofluorescence analysis, Jurkat T cells (1×10^6) were obtained and blocked with 2% BSA for 1 hour at room temperature to decrease specific binding. After blocking, the cells were collected and incubated with 10 μM of peptides stained with FITC (green fluorescence) for 1 hour at 37° C. PBS was used for washing the cells three times and 4% paraformaldehyde was used for immobilization. […] PBS was used for washing three times again and anti-fade mounting medium was used for preserving fluorescence. Further, fluorescence confocal microscope images were analyzed by using Image J software to evaluate the ability of polypeptides to compete the binding sites of PD-1. […] Subsequently, the cells were incubated with 10 μM or 40 μM of peptides stained with FITC (green fluorescence) for 1 hour at 4° C. PBS was used for washing three times, and finally 500 ul of PBS was used for resuspending the cells, which were then transferred to flow tubes and analyzed by flow cytometry (CytoFLEX, BECK MANCOULTER, America).
# [2] = biological target: T2, PD-1 expressed on the surface of stimulated Jurkat T cells (Homo sapiens, UniProt Q15116); experiment: Blocking capacity: competitive binding to PD-1 on stimulated Jurkat T cells (immunofluorescence, mean fluorescence intensity); assay type: cell-based; conditions: 1 hour incubation, equal concentration
# T2 construct: when Jurkat cells were stimulated by PMA, they highly expressed PD-1; endogenous in cells; host or cells: Jurkat T cells stimulated with PMA and ionomycin
# Experimental: as §1, with “America). […]” for “America).”
# [3] = biological target: T3, recombinant Human PD-L1 protein binding to PD-1-expressing Jurkat T cells (Homo sapiens, UniProt Q15116); experiment: Neutralization of recombinant Human PD-L1 protein binding to PD-1-expressing Jurkat T cells (flow cytometry); assay type: cell-based; conditions: peptide 0.4-40 μM mixed with PD-L1 protein, stimulated Jurkat T cells
# T3 construct: when Jurkat cells were stimulated by PMA, they highly expressed PD-1; host or cells: Jurkat T cells stimulated with PMA and ionomycin
# Experimental: The Jurkat T cells were divided into two groups, an experimental group and a control group, wherein in the experimental group, 50 ng/ml of Phorbol 12-myristate 13-acetate (PAM) and 1 ug/ml of Ionomycin Calcium Salt (Ionomycin) were used to stimulate the cells, and in the control group, Jurkat T cells were unstimulated. The cells (5×10^5) were collected in each tube, and washed once with FACS buffer (PBS with 2% BSA). Then recombinant Human PD-L1 protein (PD1-H82F3, Acro Biosystems) was diluted to 4 ug/ml with FACS, and PD-1 binding peptides were diluted with FACS to a series of concentrations of 0.4 μM, 1.33 μM, 4 μM, 13.3 μM, and 40 μM. Subsequently, the two working solutions (PD-L1 protein diluent and peptide diluent) were mixed in an equal volume and 100 ul of mixed solutions at different concentrations were added to the centrifuge tubes together with the cells, incubated for 1 hour at 4° C. FACS buffer was used for washing the cells three times, and 0.12 ug/ml of APC Streptavidin (405207, Biolegend) was added to each tube and the incubation was performed for 1 hour at 4° C., and then the cells were washed three times with FACS buffer again, and 500 μl of PBS was added to resuspend the cells, which were further transferred to flow tubes and analyzed by flow cytometry.
# Further, neutralization capacity of nABP284 and new peptides to recombinant Human PD-L1 protein were studied. […]
# Jurkat T cells = experiment: CCK-8 cytotoxicity assay on Jurkat T cells; assay type: cell-based, Human; conditions: CCK-8, 1-64 μM, 24 hours
# Experimental: (§2) Cytotoxicity assay was performed and measured with Cell Counting Kit-8 (CCK-8, Dujindo, Japan). Jurkat cells (each well with 4000 cells), PBMCs (each well with 4000 cells) and Cal27 cells (each well with 2000 cells) were added into a 96-well plate and cultured for 24 hours, respectively. nABP284, nABP386 and nABP486 in a concentration gradient of 1 μM, 2 μM, 3 μM, 4 μM, 8 μM, 16 μM, 32 μM and 64 μM were added into the medium and the cells were cultured for 24 hours in a cell incubator. After that, 10 μl of CCK-8 solution was added to each well and the cells were incubated for 2 hours. VictorX5 Multilabel plate reader (PerkinElmer, Singapore) was used for measuring absorbance of each well at 450 nm. Cell viability (%) was calculated by the following formula:
# (§3) Cell viability (%)=[(Sample A−Background A)/(Control A−Blank A)×100%. • Wherein Sample A denotes the absorbance of the experimental well (including cells, CCK-8 solution, medium and peptide diluent) • Background A denotes the absorbance of the background hole (including CCK-8 solution, medium, and peptide diluent without cells); • Control A denotes the absorbance of the control hole (including cells, CCK-8 solution and medium without peptide diluent); and • Blank A denotes the absorbance of the blank hole (including CCK-8 solution and medium without cells and peptide diluent).
# Cal27 cells = experiment: CCK-8 cytotoxicity assay on Cal27 cells; assay type: cell-based, Human; conditions: CCK-8, 1-64 μM, 24 hours
# Experimental: as §2, §3
# [4] = test system: PD-1/PD-L1 interaction in Jurkat T / Cal27 co-culture; experiment: Co-culture of stimulated Jurkat T cells and stimulated Cal27 cells, IL-2 ELISA; assay type: cell-based, Human; conditions: 10 μM peptide or 2 ug/ml antibody, 24 hours co-culture, compared with the control group
# Experimental: 50 ng/ml of Phorbol 12-myristate 13-acetate (PMA) and 1 ug/ml of Ionomycin Calcium Salt (Ionomycin) were used for stimulating Jurkat T cells for 24 hours, and 500 U/ml of IFN-γ was used for stimulating CAL27 cells for 48 hours. The stimulated Jurkat T cells were incubated with 10 μM of nABP284, 10 μM of nABP386, 10 μM of nABP486, and 2 ug/ml of PD-1 functional monoclonal antibody (J116, eBioscience|ThermoFisher Science) for 1 hour in advance at 37° C., respectively, and the stimulated CAL27 cells were added to the 96-well plate at 1×10^4 cells per well. When CAL27 cells were immobilized, a supernate was removed. The Jurkat T cells at a ratio of 4 to 1 and 200 ul of medium were added to each well. After these cells were co-cultured for 24 hours, a supernate was collected and analyzed by ELISA kit (88-7025-86, Thermo Fisher Scientific) to measure the amount of IL-2 in the supernate.
# PD-1 [5] = biological target: T4, PD-1 (Homo sapiens, UniProt Q15116); conditions: in vitro, prior patent; cited from earlier work
# Target sequence in this assay (Q15116 25-288): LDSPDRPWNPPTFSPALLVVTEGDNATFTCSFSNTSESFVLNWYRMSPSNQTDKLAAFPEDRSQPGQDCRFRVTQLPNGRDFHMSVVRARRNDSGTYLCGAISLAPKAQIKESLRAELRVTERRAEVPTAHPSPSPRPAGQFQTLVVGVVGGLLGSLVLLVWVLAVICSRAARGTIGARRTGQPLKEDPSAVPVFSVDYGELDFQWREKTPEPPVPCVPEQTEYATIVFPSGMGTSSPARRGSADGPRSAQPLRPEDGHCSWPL
# tumor = conditions: prior patent; cited from earlier work
# PD-1 [6] = biological target: T4, PD-1; experiment: SPR affinity assay on recombinant Human PD-1 protein (Biocore T100, CM5 chip); assay type: binding; design: purchased Acro Biosystems PD1-H5221
# Experimental: The affinity of the peptides was tested with Biocore T100 through surface plasmon resonance (SPR) technique. […] Finally, the affinities (Kd-value) of the peptides were calculated by fitting curves in the sensor diagram in Biacore software.
# The binding affinities (Kd-value) of nABP386, nABP486, and nABP786 to PD-1 were detected by Surface plasma resonance (SPR), respectively.
# Target sequence in this assay (Q15116 25-167 limits assumed): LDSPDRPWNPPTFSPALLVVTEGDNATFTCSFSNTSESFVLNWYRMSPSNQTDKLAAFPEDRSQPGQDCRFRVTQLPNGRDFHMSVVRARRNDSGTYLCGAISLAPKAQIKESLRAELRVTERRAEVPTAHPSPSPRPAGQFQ
# T3 sequence (Q15116 25-288): as the sequence (Q15116 25-288) above
# T2 sequence (Q15116 25-288): as above
# T1 sequence (Q15116 25-288): as above
sequence,measurement,setting,value
SRLKEIANSPTQFWRMVARNTLGGAKQSLNIEHARL [nABP284],binding rate to PD-1-expressing Jurkat T cells,[1],may increase with its increasing concentration
same,blocking capacity on PD-1 (mean fluorescence intensity),[2],have a blocking capacity on PD-1 expressed on the surface of stimulated Jurkat T cells
same,neutralization capacity to recombinant Human PD-L1 protein,[3],can be inhibited
same,direct cytotoxicity to Jurkat T cells,Jurkat T cells,no directly cytotoxicity
same,direct cytotoxicity to Cal27 cells,Cal27 cells,no directly cytotoxicity
same,secretion level of IL-2 in the co-culture system,[4],significantly increased
same,blocking of PD-L1 ligand binding to PD-1,PD-1 [5],can block the binding of PD-L1 ligand to PD-1
same,secretion of IL-2 and tumor cytotoxicity of T lymphocytes,PD-1 [5],enhance the secretion of interleukin 2 (IL-2) and tumor cytotoxicity of T lymphocytes
same,tumor growth in mice,tumor,inhibit tumor growth in mice
same,"binding affinity to PD-1, in words",PD-1 [6],can specifically bind to PD-1 with moderate affinity
